Measurements taken from patent publication US9682013B2, “Pharmaceutical compositions comprising human antibodies to PCSK9” (SANOFI BIOTECHNOLOGY, priority 2011, dated 2017).

What was measured:
[1] = test system: patients with an elevated LDL-C (≧100 mg/dL or 2.59 mmol/L) treated with a stable dose of atorvastatin 10 mg; experiment: Study 2: randomized, double-blind, placebo-controlled 8-week study of 316P 150 mg E2W with atorvastatin 10 mg or 80 mg; format: in vivo, human; conditions: placebo+atorvastatin 80 mg group, previously on atorvastatin 10 mg
Protocol: This was a randomized, double-blind, 3-parallel-groups, placebo-controlled, fixed dose/dose regimen, multicenter, 8-week study in subjects with primary hypercholesterolemia, aged 18-75 years. One aim of this study was to assess the efficacy and safety of 316P in patients with an elevated LDL-C (≧100 mg/dL or 2.59 mmol/L) treated with a stable dose of atorvastatin 10 mg.
During the screening period, patients had to be stabilized to atorvastatin 10 mg for at least 6 weeks, if they are not already. Then, after 1 additional screening week, patients were centrally randomized via IVRS/IWRS in a 1:1:1 ratio to one of the 3 treatment groups (placebo for 316P+atorvastatin 80 mg, 316P 150 mg E2W+atorvastatin 80 mg, 316P 150 mg E2W+atorvastatin 10 mg) and treated in a double-blind manner for approximately 8 weeks. 316P was administered every 2 weeks on site trough subcutaneous injection and atorvastatin was administered orally once daily in the evening at home. The double-blind treatment period was then followed by an 8-week follow-up period.
Inclusion criteria: • Patients (patients receiving a lipid lowering treatment other than atorvastatin/or not at stable dose of atorvastatin 10 mg for at least 6 weeks prior to screening period, or drug naive patients) with primary hypercholesterolemia likely to have low-density lipoprotein cholesterol (LDL-C)≧100 mg/dL (≧2.59 mmol/L) at the end of the run-in period on atorvastatin therapy (Week-1). • OR • Patients with primary hypercholesterolemia treated with stable dose of atorvastatin 10 mg for at least 6 weeks prior to screening period and likely to have low-density lipoprotein cholesterol (LDL-C)≧100 mg/dL (≧2.59 mmol/L) at the screening visit (Week-1).
Duration of Study Period Per Subject:
• Arm 1: The first group of patients receives one subcutaneous injection of 1 mL of antibody 316P, administered in the abdomen every two weeks, with a dose regimen at 150 mg, for a double-blind treatment period of 8 weeks; • Atorvastatin is administered once per day at a stable dose of 10 mg as background therapy. • Atorvastatin is administered at a dose of 80 mg once during the double-blind treatment period of 8 weeks. • Arm 2: The second group of patients receives one subcutaneous injection of 1 mL of a placebo solution, administered in the abdomen every two weeks, with a dose regimen at 150 mg, for a double-blind treatment period of 8 weeks; • Atorvastatin is administered once per day at a stable dose of 10 mg as background therapy. • Atorvastatin is administered at a dose of 80 mg (2 over-encapsulated atorvastatin 40 mg tablets) once during the double-blind treatment period of 8 weeks. • Arm 3: The third group of patients receives one subcutaneous injection of 1 mL of antibody 316P, administered in the abdomen every two weeks, with a dose regimen at 150 mg, for a double-blind treatment period of 8 weeks; • Atorvastatin is administered once per day at a stable dose of 10 mg as background therapy. • Atorvastatin is administered at a dose of 10 mg (1 over-encapsulated atorvastatin 10 mg tablet+1 matching placebo tablet) once during the double-blind treatment period of 8 weeks. Primary and Key Secondary Endpoints Primary Endpoints
The primary efficacy variable is the percent change in calculated LDL-C from baseline to Week 8, which is defined as: 100×(calculated LDL-C value at Week 8-calculated LDL-C value at baseline)/calculated LDL-C value at baseline.
In case of unavailable calculated LDL-C value at Week 8 as defined above, then the last calculated LDL-C value measured during the efficacy period and before the Week 8 time window was used to impute the missing Week 8 calculated LDL-C value (Last Observation Carried Forward [LOCF] procedure). […]

[2] = test system: male Syrian hamster; experiment: Study 4: cholesterol lowering effect of 316P alone and with atorvastatin in hamster; format: in vivo; conditions: treatment alone up to the maximal tolerated dose
Text: This is an animal study on the cholesterol lowering effect of 316P, a fully human PCSK9 blocking monoclonal antibody in male Syrian hamster
The aim of this study was to investigate the effect of 316P, a human monoclonal antibody to human PCSK9, alone and in combination with statins on expression of the hepatic LDLR and the resulting effects on serum LDL-C.
The maximal effect on LDL-C (−17/−27/−60%) was seen within 7 days. PK data of 316P are in line with the dose-dependent effect on LDL-C.

[3] = test system: patients with genotype-confirmed hoFH; conditions: ezetimibe 10 mg/day added to maximal dose of statins; cited from earlier work

| SMILES | median reduction from baseline in LDL-C at 8 weeks [1] [%] | LDL-C [2] | hepatic LDLR expression [2] | total reduction of LDL-C levels [3] [%] |
| --- | --- | --- | --- | --- |
| CC(C)c1c(C(=O)Nc2ccccc2)c(-c2ccccc2)c(-c2ccc(F)cc2)n1CC[C@@H](O)C[C@@H](O)CC(=O)O [atorvastatin, reference compound] | −26.9 | did not decrease LDL-C | no effect |  |
| O=C1[C@H](CC[C@H](O)c2ccc(F)cc2)[C@@H](c2ccc(O)cc2)N1c1ccc(F)cc1 [ezetimibe] |  |  |  | 27 |
